In assay [1] the test system is HCV genotype 1a subgenomic replicon with NS3 resistance mutation R155K. Nature of the assay: HCV replicon RNA replication assay, R155K 1a. Type of assay: cell-based, HCV genotype 1a (strain H77), Huh-7 cells. Conditions: Hepatitis C virus, Huh-7, 72 h, read-out: R155K 1a Ec50 (nM).
For assay [2], the system named is HCV genotype 1b subgenomic replicon with NS3 resistance mutation D168V. The assay can be described thus: HCV replicon RNA replication assay, D168V 1b. Type of assay: cell-based, HCV genotype 1b (Con-1), Huh-7 cells. The note with it: Hepatitis C virus, Huh-7, 72 h, read-out: D168V 1b Ec50 (nM).
Assay [3] has as its system HCV genotype 1a subgenomic replicon with NS3 resistance mutation D168V. Nature of the assay: HCV replicon RNA replication assay, D168V 1a. Type of assay: cell-based, HCV genotype 1a (strain H77), Huh-7 cells. Conditions: Hepatitis C virus, read-out: D168V 1a Ec50 (nM).
Assay [4] has as its system HCVPV1a subgenomic replicon (wild type 1a). The assay can be described thus: HCV replicon RNA replication assay, wild type 1a. Type of assay: cell-based, HCV genotype 1a (strain H77), Huh-7 cells. The note with it: Hepatitis C virus, read-out: WT 1a Ec50.
Assay [5] has as its system HCVPV1b subgenomic replicon (wild type 1b). Nature of the assay: HCV replicon RNA replication assay, wild type 1b. The assay is classed as cell-based, HCV genotype 1b (Con-1), Huh-7 cells. The note with it: Hepatitis C virus, read-out: WT 1b Ec50.
Setting [6] is: Table 1, luciferase replicon, Huh-7, 72 h.

Like-named read-outs stand apart in the source and are kept apart here.

Regarding `COCc1ccc(C(=O)N[C@H]2CCCCC/C=C\[C@@H]3C[C@@]3(C(=O)NS(=O)(=O)C3CC3)NC(=O)[C@@H]3C[C@@H](Oc4cc(OC(C)C)nc5c(C)c(OC)ccc45)CN3C2=O)s1` [Compound 1009, (2R,6S,12Z,13aS,14aR,16aS)-N-(cyclopropylsulfonyl)-2-{[7-methoxy-8-methyl-2-(propan-2-yloxy)quinolin-4-yl]oxy}-6-({[5-(methoxymethyl)thiophen-2-yl]carbonyl}amino)-5,16-dioxo-1,2,3,6,7,8,9,10,11,13a,14,15,16,16a-tetradecahydrocyclopropa[e]pyrrolo[1,2-a][1,4]diazacyclopentadecine-14a(5H)-carboxamide], the EC50 in assay [1] was found to be 3.6 nM; in assay [2], 0.24 nM; in assay [3] (Huh-7, 72 h), 7.2 nM; in assay [4] (setting [6]), 0.43 nM; in assay [5] (setting [6]), 0.46 nM.
The corresponding values for `CNC(=O)Cn1ccc(C(=O)N[C@H]2CCCCC/C=C\[C@@H]3C[C@@]3(C(=O)NS(=O)(=O)C3(C)CC3)NC(=O)[C@@H]3C[C@@H](Oc4cc(OC(C)C)nc5c(C)c(OC)ccc45)CN3C2=O)n1` [Compound 1019, (2R,6S,12Z,13aS,14aR,16aS)-2-{[7-methoxy-8-methyl-2-(propan-2-yloxy)quinolin-4-yl]oxy}-6-[({1-[2-(methylamino)-2-oxoethyl]-1H-pyrazol-3-yl}carbonyl)amino]-N-[(1-methylcyclopropyl)sulfonyl]-5,16-dioxo-1,2,3,6,7,8,9,10,11,13a,14,15,16,16a-tetradecahydrocyclopropa[e]pyrrolo[1,2-a][1,4]diazacyclopentadecine-14a(5H)-carboxamide] are 1.6 nM, 1.8 nM, 5.4 nM, 2 nM and 1.5 nM.
For the molecule `COc1ccc2c(O[C@@H]3C[C@H]4C(=O)N[C@]5(C(=O)NS(=O)(=O)C6CC6)C[C@H]5/C=C\CCCCC[C@H](NC(=O)c5ccn(CC(F)(F)F)n5)C(=O)N4C3)cc(OC(C)C)nc2c1C` [Compound 1012, (2R,6S,12Z,13aS,14aR,16aS)-N-(cyclopropylsulfonyl)-2-{[7-methoxy-8-methyl-2-(propan-2-yloxy)quinolin-4-yl]oxy}-5,16-dioxo-6-({[1-(2,2,2-trifluoroethyl)-1H-pyrazol-3-yl]carbonyl}amino)-1,2,3,6,7,8,9,10,11,13a,14,15,16,16a-tetradecahydrocyclopropa[e]pyrrolo[1,2-a][1,4]diazacyclopentadecine-14a(5H)-carboxamide], the EC50 in assay [2] is 0.31 nM; in assay [3] (Huh-7, 72 h), 1.9 nM; in assay [4] (setting [6]) it was 0.29 nM; in assay [5] (setting [6]), 0.24 nM.
As for `CC[C@@H]1C[C@]1(NC(=O)[C@@H]1C[C@@H]2CN1C(=O)[C@H](C(C)(C)C)NC(=O)OCC(C)(C)CCCCc1cccc3c1CN(C3)C(=O)O2)C(=O)NS(=O)(=O)C1CC1` [reference compound], the EC50 in assay [3] turned out to be 3900 nM; in assay [4] (Table 2, clinical comparators, wildtype genotype 1a), 0.4 nM; in assay [5] (Table 2, clinical comparators, wildtype genotype 1b) it was 1.2 nM.
Consider `COc1ccc2c(O[C@@H]3C[C@H]4C(=O)N[C@]5(C(=O)NS(=O)(=O)C6(C)CC6)C[C@H]5/C=C\CCCCC[C@H](NC(=O)c5ccn(C)n5)C(=O)N4C3)cc(OCC(F)(F)F)nc2c1C` [Compound 1029, (2R,6S,12Z,13aS,14aR,16aS)-2-{[7-methoxy-8-methyl-2-(2,2,2-trifluoroethoxy)quinolin-4-yl]oxy}-N-[(1-methylcyclopropyl)sulfonyl]-6-{[(1-methyl-1H-pyrazol-3-yl)carbonyl]amino}-5,16-dioxo-1,2,3,6,7,8,9,10,11,13a,14,15,16,16a-tetradecahydrocyclopropa[e]pyrrolo[1,2-a][1,4]diazacyclopentadecine-14a(5H)-carboxamide], for which the 50% effective concentration (EC50) in assay [1] amounted to 1.5 nM; in assay [2], 0.25 nM; in assay [3] (Huh-7, 72 h), 9.5 nM.
